The conditions of this data set: Crystal; DTA.

Numbers after ± are expanded uncertainties.

Regarding `Cn1c(=O)c2c(ncn2CC(O)CO)n(C)c1=O` (stereo unspecified), the Normal melting temperature is 159.90 ± 1.1 °C.

The values above are taken from the NIST ThermoML archive (doi:10.1016/j.jct.2019.06.007).
